According to patent US12161722B2, “Bifunctional heterocyclic compound having BTK degradation function via ubiquitin proteasome pathway, and use thereof” (KOREA RESEARCH INSTITUTE OF CHEMICAL TECHNOLOGY, priority 2021, dated 2024):

Tests used:
C481S BTK protein = target: T1, C481S BTK protein (Homo sapiens, UniProt Q06187, C481S); experiment: BTK protein degradation assay (Western blotting), C481S BTK; format: cell-based; conditions: concentration range accounting for 50% degradation of C481S BTK protein, 293T BTK MUT (C481S) cells
T1 construct: expressed in transfected cells; host or cells: 293T BTK MUT (C481S) cells
Method: TMD-8, RAMOS, or 293T BTK MUT (C481S) cells were treated with the synthesized compounds and measured for intracellular BTK protein levels by Western blotting. The protocol of the experiment using TMD-8 cells is as follows.
The 12-well plates were treated as follows. A 10 mM stock was 1/10 diluted in series with DMSO ([…]) to form final concentrations of 10, 1, 0.1, 0.01, 0.001, and 0.0001 mM. The compounds with such concentrations were applied to cells, followed by harvesting the cells 24 hours later. For a negative control, a 1/10 dilution of DMSO in the medium (3 mL DMSO+27 mL medium) was used.
The 1-mL cell culture in each well was passed many times through a pipette and then transferred into a 1.5-mL microtube before centrifugation (500 g, 5 min, 4° C.). The supernatant was discarded and the cell pellet was washed with PBS. After centrifugation (500 g, 5 min, 4° C.) again, the supernatant was discarded and the cell pellet was taken.
A lysis buffer was prepared as follows. RIPA buffer (Biosesang, RC2038-050-00)+0.5 mM PMSF (SIGMA, P7626)+1×Protease/Phosphatase Inhibitor (Cell signaling, 5872S) was added in an amount […] per well and left for 30 minutes on ice (vortexing at 0 and 30 minutes) before sonication (5 cycles of pulse for 10 seconds and rest for 30 seconds, 70% amplification). The supernatant obtained by centrifugation (15000 g, 15 min, 4° C.) was transferred into a new microtube. Cells in each well of 96-well plates were 1/2 diluted with the RIPA buffer and incubated at 37° C. for 30 minutes with […] of a 50:1 mixture of BCA reagents A and B in BCA Protein Assay Kit (iNtRON, 21071). After being cooled for 10 minutes, the 96-well plates were measured for absorbance at 562 nm on the BioTek, SYNERGY H1 microplate reader. Samples were prepared by protein quantification based on the absorbance measurements and then boiled at 70° C. for 10 minutes. The sample buffer used in the case was prepared by mixing a NuPAGE or a Bolt 4× sample buffer (Invitrogen) and its 10× sample reducing agent depending on the gel to be used, and protein dilution was made in a RIPI buffer.
The samples were loaded in the same amount into a NuPAGE or Bolt Bis-tris 4-12% gradient gel and allowed to run therein (200 V, 35 minutes). The separated proteins were transferred onto a […] NC membrane, using Trans-blot Turbo (BIO-RAD) (1.3 A constant, 25V limit, 15 minutes). The membrane was blocked at room temperature for 1 hour with skim milk or Intercept Blocking Buffer (LI-COR, 927-60001):0.1% TBST=1:1. The membrane was incubated with Anti BTK Rabbit (1:1,000 in 5% skim milk/0.2% TBST, size: 77 kDa, Cell signaling Technology) at 4° C. overnight O/N or at room temperature for 2 hours and with Anti GAPDH Rabbit (1:10,000 in 5% BSA/0.2% TBST, size: 36 kDa, GENETEX) and Anti β-actin mouse (1:10,000 in 5% BSA/0.2% TBST, RT, size: 43 kDa, GENETEX) at room temperature for 1 or 3 hours. Then, the membrane was washed three times with 0.5% TBST for 5 minutes each time before incubation with the second antibody Anti-Rabbit IgG (1:5,000 in 5% Skim milk/TBST, CST), IRDye® 800CW Goat anti-Rabbit IgG Secondary Antibody (1:10,000 in 5% skim/TBST, RT 45 min), or IRDye® 680RD Goat anti-Mouse IgG Secondary Antibody (1:10,000 in 5% skim/TBST, RT 45 min) for 45 minutes at room temperature in a rocker. The membrane was washed five times with 0.5% TBST for 5 minutes in each time, followed by detection with LI-COR, Odyssey. In this regard, the detection proceeded, as it was, for house-keeping genes while using SuperSignal West Pico PLUS Chemiluminescent Substrate or SuperSignal West femto Maximum Sensitivity Substrate for BTK detection.
According to the concentration ranges of compounds accounting for 50% degradation of WT BTK protein and C481S BTK protein, the activities are expressed as +++(0.0001-0.01 μM), ++(0.01-1 μM), +(1-10 μM), −(>10 μM), and NT (not tested). […]

WT BTK protein = target: T2, WT BTK protein (Homo sapiens, UniProt Q06187); experiment: BTK protein degradation assay (Western blotting), WT BTK; format: cell-based; conditions: concentration range accounting for 50% degradation of WT BTK protein, TMD-8 or RAMOS cells, 24 hours
T2 construct: measured for intracellular BTK protein levels by Western blotting; endogenous in cells; host or cells: TMD-8 or RAMOS cells
In short: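 BTK levels were read by Western blotting (GAPDH and β-actin normalisers) in RIPA lysates of TMD-8 cells exposed to compounds for 24 h at 1×10^6 cells/mL. Results scored in ranges of the concentration producing 50% loss of WT BTK.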

T1 sequence (Q06187 whole entry C481S): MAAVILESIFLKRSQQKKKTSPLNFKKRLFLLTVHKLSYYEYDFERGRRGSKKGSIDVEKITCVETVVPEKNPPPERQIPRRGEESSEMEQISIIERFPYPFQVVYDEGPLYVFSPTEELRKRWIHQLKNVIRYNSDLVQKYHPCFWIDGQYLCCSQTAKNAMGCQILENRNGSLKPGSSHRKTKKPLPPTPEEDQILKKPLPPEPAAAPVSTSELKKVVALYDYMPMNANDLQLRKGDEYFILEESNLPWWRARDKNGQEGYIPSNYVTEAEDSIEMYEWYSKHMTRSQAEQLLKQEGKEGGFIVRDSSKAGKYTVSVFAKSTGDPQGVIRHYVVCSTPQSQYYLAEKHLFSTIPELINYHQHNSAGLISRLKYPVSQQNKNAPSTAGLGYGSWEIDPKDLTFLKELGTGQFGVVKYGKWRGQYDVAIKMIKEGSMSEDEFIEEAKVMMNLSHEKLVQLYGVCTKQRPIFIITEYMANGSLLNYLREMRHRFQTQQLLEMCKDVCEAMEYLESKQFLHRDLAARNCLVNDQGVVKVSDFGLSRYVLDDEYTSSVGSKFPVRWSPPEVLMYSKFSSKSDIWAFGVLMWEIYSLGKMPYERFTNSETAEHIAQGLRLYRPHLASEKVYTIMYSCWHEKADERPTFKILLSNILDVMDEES
T2 sequence (Q06187 whole entry): as the sequence (Q06187 whole entry C481S) above, with S481C counted along it

Molecule `Cc1cccc(C)c1Nc1nn(C)c2nc(Nc3ccc4c(c3)CN(C(=O)[C@H]3CCCN3C(=O)C3CCN(c5ccc6c(c5)C(=O)N(C5CCC(=O)NC5=O)C6=O)CC3)CC4)ncc12` (stereo partly drawn) [Compound 26, 5-(4-((R)-2-(7-((3-((2,6-Dimethylphenyl)amino)-1-methyl-1H-pyrazolo[3,4-d]pyrimidin-6-yl)amino)-1,2,3,4-tetrahydroisoquinoline-2-carbonyl)pyrrolidine-1-carbonyl)piperidin-1-yl)-2-(2,6-dioxopiperidin-3-yl)isoindoline-1,3-dione] has a DC50 (C481S BTK protein) of 1 to 10 µM and a DC50 (WT BTK protein) of 0.0001 to 0.01 µM.

Work on `Cc1cccc(C)c1Nc1nn(C)c2nc(Nc3ccc4c(c3)CN(CCOCCNC(=O)C3CN(c5ccc6c(c5)C(=O)N(C5CCC(=O)NC5=O)C6=O)C3)CC4)ncc12` (stereo not drawn) [Compound 27, N-(2-(2-(7-((3-((2,6-Dimethylphenyl)amino)-1-methyl-1H-pyrazolo[3,4-d]pyrimidin-6-yl)amino)-3,4-dihydroisoquinolin-2 (1H)-yl)ethoxy)ethyl)-1-(2-(2,6-dioxopiperidin-3-yl)-1,3-dioxoisoindolin-5-yl)azetidine-3-carboxamide] yielded a DC50 (C481S BTK protein) of 1 to 10 µM and a DC50 (WT BTK protein) of 0.0001 to 0.01 µM.

In the case of `Cc1cccc(C)c1Nc1nn(C)c2nc(Nc3ccc4c(c3)CN(CC3CCN(C(=O)C5CCN(c6ccc7c(c6)C(=O)N(C6CCC(=O)NC6=O)C7=O)CC5)CC3)CC4)ncc12` (stereo not drawn) [Compound 28, 5-(4-(4-((7-((3-((2,6-Dimethylphenyl)amino)-1-methyl-1H-pyrazolo[3,4-d]pyrimidin-6-yl)amino)-3,4-dihydroisoquinolin-2 (1H)-yl)methyl)piperidine-1-carbonyl)piperidin-1-yl)-2-(2,6-dioxopiperidin-3-yl)isoindoline-1,3-dione], the DC50 (C481S BTK protein) is reported as 0.0001 to 0.01 µM and the DC50 (WT BTK protein) is reported as 0.0001 to 0.01 µM.

Work on `Cc1cccc(C)c1Nc1nn(C)c2nc(Nc3ccc4c(c3)CN(CC3CCN(c5ccc6c(c5)C(=O)N(C5CCC(=O)NC5=O)C6=O)CC3)CC4)ncc12` (stereo not drawn) [Compound 29, 5-(4-((7-((3-((2,6-Dimethylphenyl)amino)-1-methyl-1H-pyrazolo[3,4-d]pyrimidin-6-yl)amino)-3,4-dihydroisoquinolin-2 (1H)-yl)methyl)piperidin-1-yl)-2-(2,6-dioxopiperidin-3-yl)isoindoline-1,3-dione] yielded a DC50 (C481S BTK protein) of 0.01 to 1 µM and a DC50 (WT BTK protein) of 0.0001 to 0.01 µM.

Molecule `Cc1cccc(C)c1Nc1nn(C)c2nc(Nc3ccc4c(c3)CN(CC3CCN(C(=O)COc5ccc6c(c5)C(=O)N(C5CCC(=O)NC5=O)C6=O)CC3)CC4)ncc12` (stereo not drawn) [Compound 30, 5-(2-(4-((7-((3-((2,6-Dimethylphenyl)amino)-1-methyl-1H-pyrazolo[3,4-d]pyrimidin-6-yl)amino)-3,4-dihydroisoquinolin-2 (1H)-yl)methyl)piperidin-1-yl)-2-oxoethoxy)-2-(2,6-dioxopiperidin-3-yl)isoindoline-1,3-dione] has a DC50 (C481S BTK protein) of 0.01 to 1 µM and a DC50 (WT BTK protein) of 0.0001 to 0.01 µM.

Molecule `Cc1cccc(C)c1Nc1nn(C)c2nc(Nc3ccc4c(c3)CN(CC3CCN(C(=O)CN5CCN(c6ccc7c(c6)C(=O)N(C6CCC(=O)NC6=O)C7=O)CC5)CC3)CC4)ncc12` (stereo not drawn) [Compound 31, 5-(4-(2-(4-((7-((3-((2,6-Dimethylphenyl)amino)-1-methyl-1H-pyrazolo[3,4-d]pyrimidin-6-yl)amino)-3,4-dihydroisoquinolin-2 (1H)-yl)methyl)piperidin-1-yl)-2-oxoethyl)piperazin-1-yl)-2-(2,6-dioxopiperidin-3-yl)isoindoline-1,3-dione] has a DC50 (C481S BTK protein) of 0.01 to 1 µM and a DC50 (WT BTK protein) of 0.0001 to 0.01 µM.

`Cc1cccc(C)c1Nc1nn(C)c2nc(Nc3ccc4c(c3)CN(C(=O)[C@H]3CCCN3C(=O)CN3CCN(c5ccc6c(c5)C(=O)N(C5CCC(=O)NC5=O)C6=O)CC3)CC4)ncc12` (stereo partly drawn) [Compound 32, 5-(4-(2-((R)-2-(7-((3-((2,6-Dimethylphenyl)amino)-1-methyl-1H-pyrazolo[3,4-d]pyrimidin-6-yl)amino)-1,2,3,4-tetrahydroisoquinoline-2-carbonyl)pyrrolidin-1-yl)-2-oxoethyl)piperazin-1-yl)-2-(2,6-dioxopiperidin-3-yl)isoindoline-1,3-dione] showed a DC50 (C481S BTK protein) of 1 to 10 µM and a DC50 (WT BTK protein) of 0.01 to 1 µM.

`Cc1cccc(C)c1Nc1nn(C)c2nc(Nc3ccc4c(c3)CN(C(=O)[C@@H]3CCCN3C(=O)CNc3ccc5c(c3)C(=O)N(C3CCC(=O)NC3=O)C5=O)CC4)ncc12` (stereo partly drawn) [Compound 35, 5-((2-((S)-2-(7-((3-((2,6-Dimethylphenyl)amino)-1-methyl-1H-pyrazolo[3,4-d]pyrimidin-6-yl)amino)-1,2,3,4-tetrahydroisoquinoline-2-carbonyl)pyrrolidin-1-yl)-2-oxoethyl)amino)-2-(2,6-dioxopiperidin-3-yl)isoindoline-1,3-dione] gave a DC50 (C481S BTK protein) of 0.01 to 1 µM and a DC50 (WT BTK protein) of 0.0001 to 0.01 µM.

Molecule `Cc1cccc(C)c1Nc1nn(C)c2nc(Nc3ccc4c(c3)CN(CC3CCN(C(=O)C5CCN(c6ccc7nnn(C8CCC(=O)NC8=O)c(=O)c7c6)CC5)CC3)CC4)ncc12` (stereo not drawn) [Compound 37, 3-(6-(4-(4-((7-((3-((2,6-Dimethylphenyl)amino)-1-methyl-1H-pyrazolo[3,4-d]pyrimidin-6-yl)amino)-3,4-dihydroisoquinolin-2 (1H)-yl)methyl)piperidine-1-carbonyl)piperidin-1-yl)-4-oxobenzo[d][1,2,3]triazin-3 (4H)-yl)piperidin-2,6-one] has a DC50 (C481S BTK protein) of 0.0001 to 0.01 µM and a DC50 (WT BTK protein) of 0.0001 to 0.01 µM.

Work on `Cc1cccc(C)c1Nc1nn(C)c2nc(Nc3ccc4c(c3)CN(CC3CCN(Cc5ccc6nnn(C7CCC(=O)NC7=O)c(=O)c6c5)CC3)CC4)ncc12` (stereo not drawn) [Compound 46] yielded a DC50 (C481S BTK protein) of 0.01 to 1 µM and a DC50 (WT BTK protein) of 0.01 to 1 µM.

Work on `Cc1cccc(C)c1Nc1nn(C)c2nc(Nc3ccc4c(c3)CN(CC3CCN(c5ccc6c(=O)n(C7CCC(=O)NC7=O)nnc6c5)CC3)CC4)ncc12` (stereo not drawn) [Compound 53, 3-(7-(4-((7-((3-((2,6-Dimethylphenyl)amino)-1-methyl-1H-pyrazolo[3,4-d]pyrimidin-6-yl)amino)-3,4-dihydroisoquinolin-2 (1H)-yl)methyl)piperidin-1-yl)-4-oxobenzo[d][1,2,3]triazin-3 (4H)-yl)piperidin-2,6-one] yielded a DC50 (C481S BTK protein) of 0.01 to 1 µM and a DC50 (WT BTK protein) of 0.0001 to 0.01 µM.

In the case of `Cc1cccc(C)c1Nc1nn(C)c2nc(Nc3ccc4c(c3)CN(C(=O)C3CCN(C(=O)C5CCN(c6ccc7c(c6)C(=O)N(C6CCC(=O)NC6=O)C7=O)CC5)CC3)CC4)ncc12` (stereo not drawn) [Compound 54, 5-(4-(4-(7-((3-((2,6-Dimethylphenyl)amino)-1-methyl-1H-pyrazolo[3,4-d]pyrimidin-6-yl)amino)-1,2,3,4-tetrahydroisoquinoline-2-carbonyl)piperidine-1-carbonyl)piperidin-1-yl)-2-(2,6-dioxopiperidin-3-yl)isoindoline-1,3-dione], the DC50 (C481S BTK protein) is reported as 0.01 to 1 µM and the DC50 (WT BTK protein) is reported as 0.0001 to 0.01 µM.
